The text below walks through data of ChEMBL document CHEMBL1909046, “DrugMatrix in vitro pharmacology data”.

Experiment [1] concerns the target T1, C-C chemokine receptor type 4 (Homo sapiens, UniProt P51679). Further: in other assays of this panel Not Active means under 50% inhibition at 10 µM.
T1 sequence (P51679 whole entry): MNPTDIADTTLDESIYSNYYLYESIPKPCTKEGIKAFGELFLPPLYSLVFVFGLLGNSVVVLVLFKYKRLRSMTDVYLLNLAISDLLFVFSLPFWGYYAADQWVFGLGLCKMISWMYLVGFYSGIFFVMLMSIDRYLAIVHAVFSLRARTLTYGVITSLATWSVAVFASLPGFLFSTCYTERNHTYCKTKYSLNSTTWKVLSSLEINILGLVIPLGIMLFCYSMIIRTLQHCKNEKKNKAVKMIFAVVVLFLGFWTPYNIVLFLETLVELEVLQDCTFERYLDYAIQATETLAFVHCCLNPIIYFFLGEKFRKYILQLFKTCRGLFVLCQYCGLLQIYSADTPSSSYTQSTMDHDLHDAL
The experiment is classed as cell membranes, Membrane. The following applies: chem-1.

The target of experiment [2] is T2, C-X-C chemokine receptor type 2 (Homo sapiens, UniProt P25025). Further: in other assays of this panel Not Active means under 50% inhibition at 10 µM.
T2 sequence (P25025 whole entry): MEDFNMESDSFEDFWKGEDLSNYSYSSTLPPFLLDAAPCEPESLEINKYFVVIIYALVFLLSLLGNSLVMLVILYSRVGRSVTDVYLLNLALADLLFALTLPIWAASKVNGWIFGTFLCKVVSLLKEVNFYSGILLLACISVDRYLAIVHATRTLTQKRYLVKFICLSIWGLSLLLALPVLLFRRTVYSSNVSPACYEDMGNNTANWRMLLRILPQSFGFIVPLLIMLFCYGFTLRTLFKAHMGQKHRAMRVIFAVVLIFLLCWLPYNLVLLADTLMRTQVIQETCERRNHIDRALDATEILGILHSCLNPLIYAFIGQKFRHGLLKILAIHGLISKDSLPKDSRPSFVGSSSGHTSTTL
The experiment is classed as cell membranes, Membrane. The following applies: cho-k1.

Experiment [3] can be described thus: DRUGMATRIX: Phorbol Ester radioligand binding (ligand: [3H] PDBu). The format is cell membranes, Mus musculus, ICR, Brain, Membrane. The following applies: Not Active = under 50% inhibition at 10 µM.
The target of a further experiment is T3, Adenosine receptor A3 (Homo sapiens, UniProt P0DMS8).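 Further: radioligand binding assay with AB-MECA serving as the labeled ligand; in other assays of this panel Not Active means under 50% inhibition at 10 µM.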
T3 sequence (P0DMS8 whole entry): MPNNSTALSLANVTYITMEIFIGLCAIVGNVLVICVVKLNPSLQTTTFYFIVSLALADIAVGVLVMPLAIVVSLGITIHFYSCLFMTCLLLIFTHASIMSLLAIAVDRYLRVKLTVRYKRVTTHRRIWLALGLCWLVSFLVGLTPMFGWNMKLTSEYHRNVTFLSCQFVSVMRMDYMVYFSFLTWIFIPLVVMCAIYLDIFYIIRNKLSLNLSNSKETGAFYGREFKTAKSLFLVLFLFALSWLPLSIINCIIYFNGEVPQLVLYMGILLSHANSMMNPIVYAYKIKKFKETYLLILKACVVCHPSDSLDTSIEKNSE
The format is cell membranes, CHO-K1, Membrane.

A short description of experiment [4]: DRUGMATRIX: Glutamate, NMDA, Phencyclidine radioligand binding (ligand: [3H] TCP). The format is cell membranes, Rattus norvegicus, Wistar, Cerebral cortex, Membrane. The following applies: Not Active = under 50% inhibition at 10 µM.
In another experiment the target is Vasopressin V1a receptor (Homo sapiens, UniProt P37288). The format is cell membranes, Membrane. The following applies: hek293. Further: in other assays of this panel Not Active means under 50% inhibition at 10 µM.
For experiment [5], the target named is Mitogen-activated protein kinase 1 (Homo sapiens, UniProt P28482). Description: DRUGMATRIX: Protein Serine/Threonine Kinase, ERK2 enzyme inhibition (substrate: Myelin Basic Protein). Also on record: species or system Escherichia coli. The following applies: Not Active = under 50% inhibition at 10 µM.
The target of experiment [6] is T4, Neuropeptide Y receptor type 1 (Homo sapiens, UniProt P25929). Further: in other assays of this panel Not Active means under 50% inhibition at 10 µM.
T4 sequence (P25929 whole entry): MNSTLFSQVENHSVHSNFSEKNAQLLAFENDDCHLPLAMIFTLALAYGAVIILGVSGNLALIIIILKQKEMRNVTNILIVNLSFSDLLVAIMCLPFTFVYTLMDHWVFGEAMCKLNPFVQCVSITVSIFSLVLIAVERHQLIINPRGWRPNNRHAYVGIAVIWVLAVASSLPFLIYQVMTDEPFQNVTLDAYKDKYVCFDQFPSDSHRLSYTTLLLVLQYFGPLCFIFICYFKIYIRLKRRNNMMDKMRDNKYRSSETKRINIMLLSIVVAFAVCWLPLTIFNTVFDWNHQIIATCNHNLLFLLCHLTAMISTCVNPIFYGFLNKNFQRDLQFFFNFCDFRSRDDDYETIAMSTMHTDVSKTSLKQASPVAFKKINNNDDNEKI
The format is cell membranes, Membrane. The following applies: sk-n-mc.

Experiment [7] is described as follows: DRUGMATRIX: Glutamate, NMDA, Agonism radioligand binding (ligand: [3H] CGP-39653). The format is cell membranes, Rattus norvegicus, Wistar, Cerebral cortex, Membrane. The following applies: Not Active = under 50% inhibition at 10 µM.
For another experiment, the target named is T5, Interstitial collagenase (Homo sapiens, UniProt P03956).
T5 sequence (P03956 whole entry): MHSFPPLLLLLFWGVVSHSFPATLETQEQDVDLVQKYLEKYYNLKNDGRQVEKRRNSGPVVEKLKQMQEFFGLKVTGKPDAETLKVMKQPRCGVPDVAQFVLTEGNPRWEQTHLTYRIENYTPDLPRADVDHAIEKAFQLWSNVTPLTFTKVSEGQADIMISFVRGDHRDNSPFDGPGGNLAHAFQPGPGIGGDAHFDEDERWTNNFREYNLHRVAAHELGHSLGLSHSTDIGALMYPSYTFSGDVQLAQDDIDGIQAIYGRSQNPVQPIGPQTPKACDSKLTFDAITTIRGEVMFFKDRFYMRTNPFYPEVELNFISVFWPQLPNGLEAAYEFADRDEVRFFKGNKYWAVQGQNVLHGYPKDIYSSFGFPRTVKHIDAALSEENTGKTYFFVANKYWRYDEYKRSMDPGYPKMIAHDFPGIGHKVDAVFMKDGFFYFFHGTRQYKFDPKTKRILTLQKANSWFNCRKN
The format is tissue-based, Rheumatoid synovial fibroblasts.

For experiment [8], the target named is T6, Cysteinyl leukotriene receptor 1 (Homo sapiens, UniProt Q9Y271). Further: in other assays of this panel Not Active means under 50% inhibition at 10 µM.
T6 sequence (Q9Y271 whole entry): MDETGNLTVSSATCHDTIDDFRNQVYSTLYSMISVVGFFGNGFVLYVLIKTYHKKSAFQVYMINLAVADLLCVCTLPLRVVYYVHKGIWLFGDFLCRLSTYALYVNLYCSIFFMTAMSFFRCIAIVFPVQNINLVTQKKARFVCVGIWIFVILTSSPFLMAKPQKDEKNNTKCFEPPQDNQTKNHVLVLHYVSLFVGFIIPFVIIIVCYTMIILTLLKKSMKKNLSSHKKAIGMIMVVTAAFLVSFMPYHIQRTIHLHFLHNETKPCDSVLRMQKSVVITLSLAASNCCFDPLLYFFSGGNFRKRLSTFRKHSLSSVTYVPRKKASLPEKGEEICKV
The format is cell membranes, CHO-K1, Membrane. The following applies: cho-k1.

A further experiment addresses T7, Leukotriene C4 synthase (Cavia porcellus, UniProt A6XA80).
T7 sequence (A6XA80 whole entry): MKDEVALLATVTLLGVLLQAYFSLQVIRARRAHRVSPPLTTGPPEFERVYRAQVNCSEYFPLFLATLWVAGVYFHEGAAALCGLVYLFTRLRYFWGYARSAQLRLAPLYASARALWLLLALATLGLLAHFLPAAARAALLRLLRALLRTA
As to the kind of experiment: biochemical. The format is tissue-based, Lung.

Usually IC50 stands for the concentration needed to halve the response being measured. The term Ki denotes a measure of affinity in units of concentration, obtained from inhibition or displacement.

Mitogen-activated protein kinase 1, sequence (P28482 whole entry): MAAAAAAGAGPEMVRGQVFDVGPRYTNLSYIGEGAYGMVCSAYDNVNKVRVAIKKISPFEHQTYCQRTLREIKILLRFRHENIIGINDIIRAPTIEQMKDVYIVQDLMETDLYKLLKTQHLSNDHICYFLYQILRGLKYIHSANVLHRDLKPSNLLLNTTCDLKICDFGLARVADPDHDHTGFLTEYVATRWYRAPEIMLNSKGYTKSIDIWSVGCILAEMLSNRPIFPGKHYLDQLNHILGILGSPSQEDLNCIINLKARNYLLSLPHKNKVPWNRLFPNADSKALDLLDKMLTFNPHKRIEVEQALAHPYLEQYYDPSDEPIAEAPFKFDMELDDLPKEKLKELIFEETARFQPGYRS
Vasopressin V1a receptor, sequence (P37288 whole entry): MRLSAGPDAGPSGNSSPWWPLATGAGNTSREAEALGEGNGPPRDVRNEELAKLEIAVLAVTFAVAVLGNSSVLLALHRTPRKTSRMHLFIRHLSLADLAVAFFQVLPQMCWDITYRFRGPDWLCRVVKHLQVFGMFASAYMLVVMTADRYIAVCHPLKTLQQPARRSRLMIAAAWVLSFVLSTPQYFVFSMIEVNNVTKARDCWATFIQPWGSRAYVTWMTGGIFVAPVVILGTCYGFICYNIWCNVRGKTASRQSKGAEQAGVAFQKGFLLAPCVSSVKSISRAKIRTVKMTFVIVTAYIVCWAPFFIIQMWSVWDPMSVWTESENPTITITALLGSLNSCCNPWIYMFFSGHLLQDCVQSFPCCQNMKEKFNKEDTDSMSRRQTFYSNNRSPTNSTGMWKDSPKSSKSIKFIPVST

On to `C[C@]12Cc3c[nH]nc3C[C@@H]1CC[C@@H]1[C@@H]2CC[C@@]2(C)[C@H]1CC[C@]2(C)O` [STANOZOLOL], for which the IC50 result in experiment [1] is “Not Active”; in [2], “Not Active”; in experiment [3], “Not Active”; at Adenosine receptor A3 (read-out: IC50) it was 8.33 µM; in experiment [4] it was “Not Active”; against Vasopressin V1a receptor, “Not Active”. Also, the IC50 entry (in experiment [5]; in experiment [6]; in experiment [7]; on Interstitial collagenase; in experiment [8]; on Leukotriene C4 synthase) was “Not Active” throughout. Also, the Ki entry is “Not Active” in [3], 4.71 µM on Adenosine receptor A3 (read-out: Ki), “Not Active” in experiment [4] and “Not Active” in experiment [7].
With `CC(C)(C)NCC(O)c1cc(O)cc(O)c1` (stereo unspecified) [TERBUTALINE], the IC50 entry (in experiment [1]; in experiment [2]; in experiment [3]; on Adenosine receptor A3 (cho-k1); in experiment [4]; at Vasopressin V1a receptor) was “Not Active” throughout. In addition, the IC50 entry (in experiment [5]; in experiment [6]; in [7]; at Interstitial collagenase; in experiment [8]; at Leukotriene C4 synthase) was “Not Active” each time. Also, the Ki entry in experiment [3], in experiment [4] and in experiment [7] was “Not Active” throughout.
`C=CC[C@@H]1/C=C(\C)C[C@H](C)C[C@H](OC)[C@H]2O[C@@](O)(C(=O)C(=O)N3CCCC[C@H]3C(=O)O[C@H](/C(C)=C/[C@@H]3CC[C@@H](O)[C@H](OC)C3)[C@H](C)[C@@H](O)CC1=O)[C@H](C)C[C@@H]2OC` [TACROLIMUS ANHYDROUS]: the IC50 result (in [1]; in experiment [2]; in experiment [3]; against Adenosine receptor A3 (cho-k1); in experiment [4]; against Vasopressin V1a receptor) was “Not Active” throughout. Besides, the IC50 entry (in experiment [5]; in [6]; in [7]; against Interstitial collagenase; in experiment [8]; against Leukotriene C4 synthase) was “Not Active” each time. Besides, the Ki entry in experiment [3], in [4] and in experiment [7] was “Not Active” in each case.
Take `CC(=O)[C@H]1CC[C@H]2[C@@H]3CCC4=CC(=O)CC[C@]4(C)[C@H]3CC[C@]12C` [PROGESTERONE]: the IC50 entry (in [1]; in experiment [2]; in [3]; at Adenosine receptor A3 (cho-k1); in experiment [4]; at Vasopressin V1a receptor) was “Not Active” each time. The IC50 result (in experiment [5]; in experiment [6]; in [7]; at Interstitial collagenase; in experiment [8]; at Leukotriene C4 synthase) was “Not Active” in each case. Moreover, the Ki entry in experiment [3], in experiment [4] and in experiment [7] was “Not Active” throughout.
In the case of `CN[C@H](CC(C)C)C(=O)N[C@H]1C(=O)N[C@@H](CC(N)=O)C(=O)N[C@H]2C(=O)N[C@H]3C(=O)N[C@H](C(=O)N[C@H](C(=O)O)c4cc(O)cc(O)c4-c4cc3ccc4O)[C@H](O)c3ccc(c(Cl)c3)Oc3cc2cc(c3O[C@@H]2O[C@H](CO)[C@@H](O)[C@H](O)[C@H]2O[C@H]2C[C@](C)(N)[C@H](O)[C@H](C)O2)Oc2ccc(cc2Cl)[C@H]1O` [VANCOMYCIN], the IC50 entry (in experiment [1]; in [2]; in experiment [3]; on Adenosine receptor A3 (cho-k1); in experiment [4]; against Vasopressin V1a receptor) was “Not Active” each time. Also, the IC50 entry (in [5]; in [6]; in experiment [7]; against Interstitial collagenase; in [8]; on Leukotriene C4 synthase) was “Not Active” throughout. Besides, the inhibition constant (Ki) result in experiment [3], in [4] and in [7] was “Not Active” in each case.
In the case of `CN(C)[C@@H]1C(O)=C(C(N)=O)C(=O)[C@@]2(O)C(O)=C3C(=O)c4c(O)cccc4[C@@](C)(O)[C@H]3C[C@@H]12` [TETRACYCLINE], the IC50 result (in [1]; in [2]; in experiment [3]; at Adenosine receptor A3 (cho-k1); in [4]; against Vasopressin V1a receptor) was “Not Active” in each case. The IC50 result (in [5]; in experiment [6]; in [7]; on Interstitial collagenase; in experiment [8]; against Leukotriene C4 synthase) was “Not Active” each time. The Ki result in [3], in [4] and in experiment [7] was “Not Active” each time.
